# Experimental data as given in patent US20060276407A1, “Methods of treating hepatitis C virus” (Schering Corporation, priority 2005, published 2006).
# Values joined by “and” are separate entries in the source; they are usually repeats but may differ in a detail not shown here. Equal entries are not always repeated. Where two headings read alike, the source gives them in different places.
# Test: Food-effect crossover bioavailability study, 600 mg fed vs fasted, healthy adult subjects (Example 2)
# Format: in vivo, human
# Conditions: for Plasma concentration at 8 hours / Plasma concentration at 12 hours: individual subjects; for concentration at 8 hours / concentration at 12 hours / Vd/F / AUC / Cmax / half-life / Tmax: both sexes, human, plasma, po, 600 mg; for half-life: read-out: t½ (converted); for Tmax: median (range)
# Experimental: This was a randomized, open-label, single-dose, two-treatment (fed or fasted), two-period, two-sequence crossover study of the effect of food on the bioavailability of compound of Formula Ia in 23 healthy adult male and female subjects. The primary pharmacokinetic parameters were AUC(l) and Cmax for compound of Formula Ia. The study included a 7-day wash-out period between treatment periods.
# Subjects were confined at the study site at least 14 hours prior to each treatment (Day −1). On the morning of Day 1, following a 10-hour overnight fast, subjects were randomized to receive in a particular order Treatment A and Treatment B: • Treatment A: compound of Formula Ia 600 mg (6×100 mg capsules) PO following an overnight fast. • Treatment B: compound of Formula Ia 600 mg (6×100 mg capsules) PO within 20 minutes following the completion of a standard high-fat breakfast. There was a 7-day wash-out period between receiving treatments.
# Subjects receiving Treatment A received a formulation of compound of Formula Ia comprised of compound of Formula Ia and a pharmaceutically acceptable carrier, such as microcrystalline cellulose, while continuing to fast, while subjects randomized to Treatment B consumed a standardized high-fat meal prior to compound administration (within 20 minutes prior to the compound administration). The capsules along with approximately 240 mL of water were swallowed whole, not chewed or crushed. […] Water was permitted as desired except for 1 hour before and after compound administration. A washout period of at least 7 days separated the two treatment periods. Upon return to the clinic, subjects underwent the same procedures as the first period and continued the randomization sequence (subjects who received compound of Formula Ia fasted in Period 1 and then received compound of Formula Ia under fed conditions in Period 2, and vice versa).
# Blood samples (7 mL each) for the determination of compound of Formula Ia levels were drawn immediately prior to dosing (0 hour), and at 0.5, 1, 1.5, 2, 2.5, 3, 4, 5, 6, 8, 12, 24, 36, and 48 hours after dosing. The blood samples were collected into tubes containing EDTA. The samples were centrifuged at 1500 g for 10 minutes to obtain plasma and the plasma samples were frozen at −20° C. and maintained in the frozen state until assayed.
# Plasma concentrations of compound of Formula Ia were determined using a validated liquid chromatography tandem mass spectrometry (LC-MS/MS) method. The assay lower limit of quantitation (LLOQ) was 0.50 ng/mL and the method was validated over the concentration range of 0.50 to 1000 ng/mL.
# The mean and percent coefficient of variation (% CV) were calculated for plasma concentrations of compound of Formula Ia at each time point. Concentration values less than the assay LLOQ were reported as, and set to zero in the tables and calculations. The plasma concentration-time data for compound of Formula Ia were subjected to pharmacokinetic analysis by noncompartmental methods using WinNonlin software. Nominal sampling times were used for pharmacokinetic analysis, since none of the pharmacokinetic sampling time deviations were >10% of the nominal times. For each subject, the following pharmacokinetic parameters were determined for compound of Formula Ia: maximum plasma concentration (Cmax), time of maximum observed plasma concentration (Tmax), the final quantifiable sampling time (tf), area under the plasma concentration-time curve from time 0 to tf (AUC[tf]), AUC(l) (AUC[tf]+ C[tf]estimated/K) and Vd/F. The K and C(tf)estimated are defined as terminal elimination rate constant and estimated concentration at final quantifiable sample, respectively. Terminal phase half-life (t½=ln 2/K) and apparent clearance (CLUF=Dose/AUC[l]) were also determined. Cmax, Tmax and tf were the observed values. […]
# [1] = 600 mg PO, fasted, mean, balanced data
# [2] = 600 mg PO, fed (high-fat breakfast), mean, balanced data
# [3] = 600 mg PO, standardized high-fat meal
smiles,measurement,setting,value
"CC(C)(C)NC(=O)N[C@H](C(=O)N1C[C@H]2[C@@H]([C@H]1C(=O)NC(CC1CCC1)C(=O)C(N)=O)C2(C)C)C(C)(C)C (mixture of isomers) [Formula Ia, (1 R, 5S)-N-[3-Amino-1-(Cyclobutylmethyl)-2,3-Dioxopropyl]-3-[2(S)-[[[(1,1-Dimethylethyl)Amino]Carbonyl]Amino]-3,3-Dimethyl-1-Oxobutyl]-6,6-Dimethyl-3-Azabicyclo[3.1.0]Hexan-2(S)-Carboxamide]","Apparent mean Vd/F, fed versus fasted states",600 mg PO,about five
same,"Median concentration at the 8-hour time point, fed state relative to fasted state",600 mg PO,more than 4 fold
same,"Median concentration at the 12-hour time point, increase in fed state relative to fasted state",600 mg PO,2 fold
same,AUC(l) Ratio Estimate (fed to fasted),"600 mg PO, Female (n = 10)",225%
same,AUC(tf) Ratio Estimate (fed to fasted),"600 mg PO, Female (n = 10)",229%
same,Cmax Ratio Estimate (fed to fasted),"600 mg PO, Female (n = 10)",170%
same,AUC(l) Ratio Estimate (fed to fasted),"600 mg PO, Male (n = 10)",202%
same,AUC(tf) Ratio Estimate (fed to fasted),"600 mg PO, Male (n = 10)",205%
same,Cmax Ratio Estimate (fed to fasted),"600 mg PO, Male (n = 10)",155%
same,Plasma concentration at 8 hours,"600 mg PO, fasted",37.5 ng/mL and 18.7 ng/mL and 37.4 ng/mL and 13.4 ng/mL and 77.9 ng/mL and 39.0 ng/mL and 46.6 ng/mL and 50.0 ng/mL and 66.8 ng/mL and 19.3 ng/mL and 8.50 ng/mL and 27.3 ng/mL and 24.8 ng/mL and 24.1 ng/mL and 81.3 ng/mL and 58.0 ng/mL and 33.5 ng/mL and 28.7 ng/mL and 27.8 ng/mL
same,Plasma concentration at 12 hours,"600 mg PO, fasted",20.9 ng/mL and 8.12 ng/mL and 27.0 ng/mL and 4.90 ng/mL and 21.3 ng/mL and 16.3 ng/mL and 18.3 ng/mL and 20.6 ng/mL and 11.4 ng/mL and 4.46 ng/mL and 3.11 ng/mL and 13.2 ng/mL and 9.56 ng/mL and 19.6 ng/mL and 26.6 ng/mL and 14.3 ng/mL and 9.33 ng/mL and 9.50 ng/mL and 10.7 ng/mL
same,CL/F,[1],393 L/h
same,CL/F,[2],179 L/h
same,Plasma concentration at 8 hours,"600 mg PO, fed",33.8 ng/mL and 62.2 ng/mL and 190 ng/mL and 92.4 ng/mL and 442 ng/mL and 81.4 ng/mL and 54.3 ng/mL and 675 ng/mL and 392 ng/mL and 949 ng/mL and 46.1 ng/mL and 426 ng/mL and 283 ng/mL and 55.6 ng/mL and 164 ng/mL and 612 ng/mL and 54.8 ng/mL and 447 ng/mL and 33.6 ng/mL
same,Plasma concentration at 12 hours,"600 mg PO, fed",7.34 ng/mL and 11.2 ng/mL and 27.8 ng/mL and 13.6 ng/mL and 37.2 ng/mL and 13.9 ng/mL and 33.5 ng/mL and 384 ng/mL and 184 ng/mL and 54.2 ng/mL and 6.70 ng/mL and 22.2 ng/mL and 140 ng/mL and 10.4 ng/mL and 87.3 ng/mL and 109 ng/mL and 9.17 ng/mL and 48.8 ng/mL and 7.09 ng/mL
same,AUC(l) Ratio Estimate (fed to fasted),"600 mg PO, n = 20",214%
same,AUC(tf) Ratio Estimate (fed to fasted),"600 mg PO, n = 20",217%
same,Cmax Ratio Estimate (fed to fasted),"600 mg PO, n = 20",162%
same,Increase of Cmax in the fed state,[3],62%
same,Increase of mean relative bioavailability (AUC) in the fed state relative to fasted,[3],over 100%
same,Safety profile (treatment emergent and treatment related AEs),"600 mg oral dose, both fed and fasted states",low frequency of treatment emergent and treatment related AEs
same,concentration at 8 hours,"600 mg PO, fasted, Max",81.3 ng/mL
same,concentration at 12 hours,"600 mg PO, fasted, Max",27 ng/mL
same,concentration at 8 hours,"600 mg PO, fasted, Min",8.5 ng/mL
same,concentration at 12 hours,"600 mg PO, fasted, Min",3.11 ng/mL
same,concentration at 8 hours,"600 mg PO, fasted, mean",37.9 ng/mL
same,concentration at 12 hours,"600 mg PO, fasted, mean",14.2 ng/mL
same,Vd/F,[1],6730 L
same,AUC,"600 mg PO, fasted, mean, balanced data, read-out: AUC(l)",1750 ng·h/mL
same,AUC,"600 mg PO, fasted, mean, balanced data, read-out: AUC(tf)",1720 ng·h/mL
same,Cmax,"600 mg PO, fasted, mean, balanced data, read-out: Cmax",448 ng/mL
same,half-life,[1],12 h
same,concentration at 8 hours,"600 mg PO, fasted, median",33.5 ng/mL
same,concentration at 12 hours,"600 mg PO, fasted, median",13.2 ng/mL
same,Tmax,"600 mg PO, fasted, balanced data",2 h
same,AUC,"600 mg PO, fasted, n = 20, read-out: AUC(l), model-based (least square) mean",1650 ng·h/mL
same,AUC,"600 mg PO, fasted, n = 20, read-out: AUC(tf), model-based (least square) mean",1620 ng·h/mL
same,Cmax,"600 mg PO, fasted, n = 20, read-out: Cmax, model-based (least square) mean",418 ng/mL
same,Vd/F,[2],1150 L
same,AUC,"600 mg PO, fed (high-fat breakfast), mean, balanced data, read-out: AUC(l)",3700 ng·h/mL
same,AUC,"600 mg PO, fed (high-fat breakfast), mean, balanced data, read-out: AUC(tf)",3660 ng·h/mL
same,Cmax,"600 mg PO, fed (high-fat breakfast), mean, balanced data, read-out: Cmax",790 ng/mL
same,half-life,[2],4.72 h
same,Tmax,"600 mg PO, fed (high-fat breakfast), balanced data",5 h
same,concentration at 8 hours,"600 mg PO, fed, Max",949 ng/mL
same,concentration at 12 hours,"600 mg PO, fed, Max",384 ng/mL
same,concentration at 8 hours,"600 mg PO, fed, Min",33.6 ng/mL
same,concentration at 12 hours,"600 mg PO, fed, Min",6.7 ng/mL
same,concentration at 8 hours,"600 mg PO, fed, mean",268 ng/mL
same,concentration at 12 hours,"600 mg PO, fed, mean",63.5 ng/mL
same,concentration at 8 hours,"600 mg PO, fed, median",164 ng/mL
same,concentration at 12 hours,"600 mg PO, fed, median",27.8 ng/mL
same,AUC,"600 mg PO, fed, n = 20, read-out: AUC(l), model-based (least square) mean",3530 ng·h/mL
same,AUC,"600 mg PO, fed, n = 20, read-out: AUC(tf), model-based (least square) mean",3500 ng·h/mL
same,Cmax,"600 mg PO, fed, n = 20, read-out: Cmax, model-based (least square) mean",678 ng/mL
